Results reported in patent US8242118B2, “Arylsulfonamide derivatives for use as CCR3 antagonists in the treatment of inflammatory and immunological disorders” (Axikin Pharmaceuticals Inc., priority 2001, dated 2012).
Structures can show the parent of a compound that is named as a salt.

Molecular target: T1, Human CCR3 (Homo sapiens, UniProt P51677)
T1 construct: The cloned CCR3 cDNA was constructed with pcDNA3 vector and transfected into a IC562 cell line; expressed in transfected cells
T1 sequence (P51677 1-355): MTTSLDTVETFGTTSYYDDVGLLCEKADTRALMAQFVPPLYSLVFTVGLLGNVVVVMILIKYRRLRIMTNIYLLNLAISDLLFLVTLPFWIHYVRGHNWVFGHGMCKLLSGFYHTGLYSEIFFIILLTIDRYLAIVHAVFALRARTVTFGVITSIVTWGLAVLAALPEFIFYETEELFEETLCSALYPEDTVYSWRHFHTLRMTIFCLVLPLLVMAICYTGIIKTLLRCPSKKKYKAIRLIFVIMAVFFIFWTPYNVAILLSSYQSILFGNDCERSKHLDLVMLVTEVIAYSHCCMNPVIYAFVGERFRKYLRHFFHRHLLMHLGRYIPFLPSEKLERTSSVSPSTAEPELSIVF
Test: Calcium mobilization assay, eotaxin-stimulated
Assay type: cell-based
Conditions: human CCR3-transformed K562 cells, 10 nM eotaxin; compounds of about 40 to 90% purity; read-out: Activity grade Ca2+ (IC50 class)
Method: • Human CCR3-transformed K562 cells were used. The cloned CCR3 cDNA was constructed with pcDNA3 vector and transfected into a IC562 cell line. The human CCR3-transformed K562 cells were maintained in RPMI-1640 (Cat.#22400-089, Life Technologies) supplemented with 10% FCS (Cat.#A-1115-L, Hyclone), 55 μM 2-mercaptoethanol (Cat.#21985-023, Life Technologies), 1 mM sodium pyruvate (Cat.#11360-070, Life Technologies), 100 units/ml of penicillin G and 100 μg/ml of streptomycin (Cat.#15140-122, Life Technologies), and 0.4 mg/ml of Geneticin (Cat.#10131-035, Life Technologies)(hereinafter called “culture medium”). Before the receptor binding assay, cells were pretreated with 5 mM sodium butyrate (Cat.#193-01522, Wako)-containing the culture medium (2×10^5 cells/ml) for 20-24 hours to increase the expression of CCR3. (2) Receptor Binding Assay (RBA) • Butyrate-pretreated cells, suspended in binding buffer (25 mM HEPES pH 7.6, 1 mM CaCl2, 5 mM MgCl2, 0.5% BSA, 0.1% NaN3) at a cell density of 2×10^6 cells/ml, were added into 60 μl/well in the 96-well round bottom polypropylene plate (Cat.#3365, Costar). Compounds, diluted with the binding buffer (4-times higher concentration of the final concentration), were added into 30 μl/well in the polypropylene plate. [^125I]-labeled human eotaxin (Cat.#IM290, Amersham Pharmacia Biotech), diluted with the binding buffer at the concentration of 0.4 nM (final concentration; 0.1 nM), was added into 30 μl/well in the polypropylene plate. Total 120 μl/well of binding reaction mixture (60 μl/well of cell suspension, 30 μl/well of compound solution, and 30 μl/well of [^125I]-labeled eotaxin) were incubated in the polypropylene plate for 1 hour at room temperature after the incubation, 100 μl/well of the reaction mixture was transferred to a filtration plate (Cat.#MAFB-N0B, Millipore), and washed with the washing buffer (25 mM HEPES pH 7.6, 1 mM CaCl2, 5 mM MgCl2, 0.5% BSA, 0.1% NaN3, 0.5 M NaCl) twice. The 96-well filtration plate was pretreated with 100 μl/well of 0.5% polyethylenimine (Cat.#P-3143, Sigma) for 2-4 hours at room temperature and washed with the washing buffer twice before use. The non-specific binding was determined by parallel incubation in the presence of 500 nM of non-labeled eotaxin (Cat.#23209, Genzyme Techne). The radioactivities remained on the filter were measured by liquid scintillation counter (TopCount™, Packard) after an addition of 45 μl/well of scintillant (Microscint20, Cat.#6013621, Packard). The inhibition percent at each concentration of compound was calculated, and IC50 values were determined from the inhibition curve. [Determination of IC50 Values of Compounds in Calcium Mobilization Assay] (IC50 Ca2+) (1) Cell • Human CCR3-transformed K562 cells were used. The human CCR3-transformed K562 cells were maintained in RPMI-1640 supplemented with 10% FCS, 55 μM 2-mercaptoethanol (Cat.#21985-023, Life Technologies), 1 mM sodium pyruvate, 100 units/ml of penicillin G and 100 μg/ml of streptomycin and 0.4 mg/ml of Geneticin. Before the calcium mobilization assay, cells were pretreated with 5 mM sodium butyrate-containing the culture medium (2×10^5 cells/ml) for 20-24 hours to increase the expression of CCR3. (2) Calcium Mobilization Assay • Butyrate-pretreated cells were loaded with Fluo-3AM (Cat.#F-1242, Molecular Probes) in loading buffer (Hanks' solution Cat.#05906 Nissui, 20 mM HEPES pH 7.6, 0.1% BSA, 1 mM probenecid Cat.#P-8761 Sigma, 1 μM Fluo-3AM, 0.01% pluronic F-127 Cat.#P-6866 Molecular Probes) at a cell density of 1×10^7 cells/ml. Then, cells were washed with calcium assay buffer (Hanks' solution Cat.#05906 Nissui, 20 mM HEPES pH 7.6, 0.1% BSA, 1 mM Probenecid Cat.#P-8761 Sigma). The cell suspension (3.3×10^6 cells/ml) was added into 60 μl/well in the 96-well clear bottom black plate (Cat.#3904, Costar). Compounds, diluted (5-times concentration of the final concentration) with the calcium assay buffer, were added into 20 μl/well in the plate 10 minutes before assay. […]

| SMILES | IC50 |
| --- | --- |
| Cc1cccc(Oc2ccc([N+](=O)[O-])cc2S(=O)(=O)N2CCNCC2)c1 [Example 1-24] | < 1 µM |
| COC(=O)c1cncc(Oc2ccc([N+](=O)[O-])cc2S(=O)(=O)N2CCNCC2)c1 [Example 1-53] | 1 to 10 µM |
| NCCNS(=O)(=O)c1cc([N+](=O)[O-])ccc1Oc1cc(Cl)cc(Cl)c1 [Example 1-95] | < 1 µM |
| O=[N+]([O-])c1ccc(Oc2cc(Cl)cc(Cl)c2)c(S(=O)(=O)NCC2CCNCC2)c1 [Example 1-96] | < 1 µM |
| CN(C)CC(C)(C)CNS(=O)(=O)c1cc([N+](=O)[O-])ccc1Sc1cc(Cl)cc(Cl)c1 [Example 2-4] | < 1 µM |
| O=[N+]([O-])c1ccc(Sc2ccccc2)c(S(=O)(=O)N2CCNCC2)c1 [Example 2-14] | 1 to 10 µM |
| O=[N+]([O-])c1ccc(Nc2cccc(Cl)c2)c(S(=O)(=O)N2CCNCC2)c1 [Example 3-7] | < 1 µM |
| O=[N+]([O-])c1ccc(Nc2ccc(Cl)cc2)c(S(=O)(=O)N2CCNCC2)c1 [Example 3-8] | < 1 µM |
| O=[N+]([O-])c1ccc(Nc2ccccc2F)c(S(=O)(=O)N2CCNCC2)c1 [Example 3-9] | < 1 µM |
| O=[N+]([O-])c1ccc(Nc2cccc(F)c2)c(S(=O)(=O)N2CCNCC2)c1 [Example 3-10] | < 1 µM |
| O=[N+]([O-])c1ccc(Nc2ccc(F)cc2)c(S(=O)(=O)N2CCNCC2)c1 [Example 3-11] | < 1 µM |
| COc1ccccc1Nc1ccc([N+](=O)[O-])cc1S(=O)(=O)N1CCNCC1 [Example 3-12] | < 1 µM |
| CN(C)CCCCNS(=O)(=O)c1cc([N+](=O)[O-])ccc1Oc1cc(Cl)cc(Cl)c1 [Example 4-39] | < 1 µM |
| CC1CCCCN1CCCNS(=O)(=O)c1cc([N+](=O)[O-])ccc1Oc1cc(Cl)cc(Cl)c1 (stereo not shown) [Example 4-40] | < 1 µM |
| O=[N+]([O-])c1ccc(Oc2cc(Cl)cc(Cl)c2)c(S(=O)(=O)NCCN2CCCCC2)c1 [Example 4-41] | < 1 µM |
| Cc1cc(C)cc(Oc2cc(Cl)c(C#N)cc2S(=O)(=O)N2CCNCC2)c1 [Example 12-2] | 1 to 10 µM |
| N#Cc1cc(S(=O)(=O)N2CCNCC2)c(Oc2cc(Cl)cc(Cl)c2)cc1Cl [Example 12-3] | 1 to 10 µM |
| N#Cc1ccc(Oc2cc(Cl)cc(Cl)c2)c(S(=O)(=O)N2CC[C@H](N)C2)c1 [Example 13-1, 1-{5-cyano-2-(3,5-dichlorophenoxy)phenylsulfonyl}-(3S)-aminopyrrolidine hydrochloride] | < 1 µM |

| SMILES | IC50 |
| --- | --- |
| N#Cc1ccc(Oc2cc(Cl)cc(Cl)c2)c(S(=O)(=O)NCCN)c1 [Example 13-8] | < 1 µM |
| Cc1cc(C)cc(Oc2ccc(C(=O)O)cc2S(=O)(=O)N2CCNCC2)c1 [Example 14-1, 4-(3,5-dimethylphenoxy)-3-(1-piperazinylsulfonyl)benzoic acid hydrochloride] | < 1 µM |
| O=C(O)c1ccc(Oc2cc(Cl)cc(Cl)c2)c(S(=O)(=O)N2CCNCC2)c1 [Example 14-3] | < 1 µM |
| O=C(O)c1cc(S(=O)(=O)N2CCNCC2)c(Oc2cc(Cl)cc(Cl)c2)cc1Cl [Example 14-4] | 1 to 10 µM |
| Cc1cc(C)cc(Oc2ccc(C(N)=O)cc2S(=O)(=O)N2CCNCC2)c1 [Example 15-1, 4-(3,5-dimethylphenoxy)-3-(1-piperazinylsulfonyl)benzamide hydrochloride] | < 1 µM |
| COC(=O)c1ccc(Oc2cc(C)cc(C)c2)c(S(=O)(=O)N2CCNCC2)c1 [Example 15-2, methyl 4-(3,5-dimethylphenoxy)-3-(1-piperazinylsulfonyl)benzoate hydrochloride] | < 1 µM |
| Cc1cc(C)cc(Oc2cc(Cl)c(C(N)=O)cc2S(=O)(=O)N2CCNCC2)c1 [Example 15-3] | 1 to 10 µM |
| NC(=O)c1cc(F)c(Oc2cc(Cl)cc(Cl)c2)c(S(=O)(=O)N2CCNCC2)c1 [Example 15-4] | 1 to 10 µM |
| Cc1cc(C)cc(Oc2ccc(CO)cc2S(=O)(=O)N2CCNCC2)c1 [Example 16-1, [4-(3,5-dimethylphenoxy)-3-(1-piperazinylsulfonyl)phenyl]methanol hydrochloride] | < 1 µM |
| N#Cc1ccc([S+]([O-])c2cc(Cl)cc(Cl)c2)c(S(=O)(=O)N2CCNCC2)c1 (stereo not shown) [Example 19-1, 4-[(3,5-dichlorophenyl)sulfinyl]-3-(1-piperazinylsulfonyl)benzonitrile hydrochloride] | 1 to 10 µM |
| CN(c1cc(Cl)cc(Cl)c1)c1ccc(C#N)cc1S(=O)(=O)N1CCNCC1 [Example 21-1, 4-[(3,5-dichlorophenyl)(methyl)amino]-3-(1-piperazinylsulfonyl)benzonitrile hydrochloride] | 1 to 10 µM |
| Cc1cc(C)cc(N(C)c2ccc([N+](=O)[O-])cc2S(=O)(=O)N2CCNCC2)c1 [Example 21-2] | < 1 µM |
| Cc1cc(C)cc(Oc2ccc(C(=O)NCCC#N)cc2S(=O)(=O)N2CCNCC2)c1 [Example 22-1, N-(2-cyanoethyl)-4-(3,5-dimethylphenoxy)-3-(1-piperazinylsulfonyl)benzamide hydrochloride] | < 1 µM |
| Cc1cc(C)cc(Oc2ccc(C(=O)NCCC(N)=O)cc2S(=O)(=O)N2CCNCC2)c1 [Example 22-2, N-[4-(3,5-dimethylphenoxy)-3-(1-piperazinylsulfonyl)benzoyl]-beta-alanineamide hydrochloride] | < 1 µM |
| Cc1cc(C)cc(Oc2ccc(-c3nnnn3CCC#N)cc2S(=O)(=O)N2CCNCC2)c1 [Example 22-3, 3-{5-[4-(3,5-dimethylphenoxy)-3-(1-piperazinylsulfonyl)phenyl]-1H-tetraazol-1-yl}propanenitrile hydrochloride] | < 1 µM |
| Cc1cc(C)cc(Oc2ccc(-c3nnn[nH]3)cc2S(=O)(=O)N2CCNCC2)c1 [Example 22-4, 1-{[2-(3,5-dimethylphenoxy)-5-(1H-tetraazol-5-yl)phenyl]sulfonyl}piperazine hydrochloride] | < 1 µM |
| Cc1cc(C)cc(Oc2cc([N+](=O)[O-])ccc2S(=O)(=O)N2CCNCC2)c1 [Example 23-1, 1-{2-(3,5-dimethylphenoxy)-4-nitrophenylsulfonyl}piperazine hydrochloride] | < 1 µM |
| Cc1cc(C)cc(Oc2cc(Br)cc(S(=O)(=O)N3CCNCC3)c2)c1 [Example 24-1, 1-{[3-bromo-5-(3,5-dimethylphenoxy)phenyl]sulfonyl}piperazine hydrochloride] | < 1 µM |

Tested on: not given
Test: not given
Conditions: not given

| SMILES | melting point |
| --- | --- |
| Cc1cc(C)cc(Oc2ccc(S(=O)(=O)N3CCNCC3)cc2S(=O)(=O)N2CCNCC2)c1.Cl.Cl | 214 to 220 °C |
